From publication PMC5341858, “Molecular regulation of apoptotic machinery and lipid metabolism by mTORC1/mTORC2 dual inhibitors in preclinical models of HER2+/PIK3CAmut breast cancer” (Oncotarget, 2016)

Key:
[1] = system: mTORC1 substrates P-S6K1(T389), P-S6(S235/6), P-4EBP1(T70) and mTORC2 substrate P-AKT(S473) in 786-O, U87MG and MDA-MB-453 cells; test: Immunoblotting of mTORC1 and mTORC2 biomarkers in tumor cells; format: cell-based
Procedure: For standard assay of inhibitor effects on cellular biomarker expression, cells were plated at pre-determined density in 6-well or 12-well culture plates for overnight, treated with inhibitors for the indicated doses and times. Cells were lysed in NuPAGE-LDS lysis buffer (Invitrogen) and immunoblotted with antibodies including P-S6K1(T389), S6, P-4EBP1(T70), 4EBP1, P-GSK3(S21/9), GSK3, cyclin D1, Raptor, Rictor, P-ACL(S455), ACL, cleaved-PARP (Cell Signaling Technology); P-S6(S235/6), AKT(S473), AKT, Bim (Abcam-Epitomics); c-Myc (Santa Cruz); Mcl-1 (Affinity); CPT1A (Proteintech); β-actin and GAPDH (Bioworld).

[2] = system: MDA-MB-453 and 786-O tumors; test: In vivo antitumor efficacy, oral once daily
Procedure: (§1) Animal studies were performed under protocols approved by Institutional Animal Care and Use Committee (IACUC) of Fudan University. Balbc female nude mice bearing MDA-MB-453, HCC1806 or 786-O tumors were staged at initial tumor volume of 150-200 mm^3 and randomized into treatment groups (n=/>8). […] Lapatinib and Sunitinib were formulated in 0.5% hydroxypropyl methyl cellulose (HPMC)-0.2% tween-80 as homogeneous suspension. All test agents were prepared twice weekly. Mice were dosed orally once daily (qd). Tumor growth inhibition rate (TGI) was calculated: TGI=[1-(Vt-Vi)/(Vc-Vi)]×100, where Vt: tumor volume of drug treated group, Vc: tumor volume of vehicle control group, Vi: initial tumor volume at staging. For biomarker studies, frozen tumors were made lysates and immunoblotted as previously described. For detecting apoptosis, tumors were excised, fixed in 4% formalin for 24 h and embedded in paraffin. Slides were processed for terminal deoxynuleotidyl transferase dUTP nick end labeling (TUNEL) using an assay kit (KeyGen Biotech, KGA7061) following vendor's instruction manual. For IHC staining, tumor slides described above were deparaffinized, rehydrated and permeablized with 1% Triton X-100. Antigens were retrieved with Tris/EDTA (pH 9.0) under microwave heating for 20 min. The slides were blocked in Tris buffered saline with 5% BSA-0.3 M glycine and reacted with anti-CPT1A (Proteintech #15184-1-AP) or anti-P-ACL S455 (Abcam #59297) and detected with peroxidase-conjugated secondary antibody (Jackson # 111-035-003). Images were acquired using Leica microscope (model DMI4000D). Staining levels were analyzed on the basis of mean optical density quantified by software image pro plus 6.0.

[3] = system: HER2-/PIK3CAwt HCC1806 breast tumor model; test: In vivo antitumor efficacy, oral once daily; design: species or system mice; conditions: HCC1806 tumors; even at the highest 40 mg/kg oral qd
Procedure: as §1, with “Slides were processed for terminal deoxynuleotidyl transferase dUTP nick end labeling (TUNEL) using an assay kit (KeyGen Biotech, KGA7061) following vendor's instruction manual. For IHC staining, tumor slides described above were deparaffinized, rehydrated and permeablized with 1% Triton X-100. Antigens were retrieved with Tris/EDTA (pH 9.0) under microwave heating for 20 min.” left out, “Images were acquired using Leica microscope (model DMI4000D).” left out

[4] = system: P-S6 and P-AKT in MDA-MB-453 tumors; test: mTOR biomarkers in tumor tissue (immunoblot); format: in vivo, mice
Procedure: as §1, with “Slides were processed for terminal deoxynuleotidyl transferase dUTP nick end labeling (TUNEL) using an assay kit (KeyGen Biotech, KGA7061) following vendor's instruction manual. For IHC staining, tumor slides described above were deparaffinized, rehydrated and permeablized with 1% Triton X-100. Antigens were retrieved with Tris/EDTA (pH 9.0) under microwave heating for 20 min.” left out, “Images were acquired using Leica microscope (model DMI4000D).” left out

[5] = system: MDA-MB-453 cells; test: Total cellular acetyl-CoA level; format: cell-based; conditions: 24 h
Procedure: Cellular glucose-to-lipid conversion was measured as described. Briefly, cells were pretreated with inhibitors for 2 h, incubated for 2 h in medium containing 2 μCi/mL D-[1-14C] glucose (PerkinElmer, NEC043X001MC). Total lipids were extracted twice with 300 μL hexane:isopropanol (3:2; vol:vol). Cell debris was carefully removed by centrifugation at 14,000 rpm for 5 min using a microcentrifuge. Radioactive lipids were dried, redissolved with 100 μL of chloroform and determined by liquid scintillation counting. A duplicate assay plate without radioactive glucose label was used to count the number of cells per treatment. Glucose to total lipid conversion rate is the radioactive counts from the extracted lipid normalized by the number of cells per hour of ^14C-glucose incubation. For acetyl-CoA assay, cells grown in 96-well plates were washed and lysed in 40 μL/well using lysis buffer. Cell lysates were transferred to V-bottom plates, cleared by centrifugation. 30 μL of the cleared cell lysates were subjected to acetyl-CoA measurement using an acetyl-CoA assay kit (Sigma, MAK-039) following manufacturer's assay manual. Duplicate assay plates were used to count the number of cells per treatment for normalization in determining cellular acetyl-CoA levels.

[6] = biological target: T1, RET (Homo sapiens, UniProt P07949); test: KINOMEscan binding assay; conditions: 1000 nM, percent control relative to vehicle
T1 construct: purchased DiscoveRx KINOMEscan
Excerpt: (§2) IC50 values were generated using Graphpad PRISM 5 software.

[7] = biological target: T2, AURKA (Homo sapiens, UniProt O14965); test: KINOMEscan binding assay; conditions: 1000 nM, percent control relative to vehicle
T2 construct: purchased DiscoveRx KINOMEscan
Excerpt: as §2

[8] = biological target: T3, AXL (Homo sapiens, UniProt P30530); test: KINOMEscan binding assay; conditions: 1000 nM, percent control relative to vehicle
T3 construct: purchased DiscoveRx KINOMEscan
Excerpt: as §2

[9] = biological target: T4, SNARK (Homo sapiens, UniProt Q9H093); test: KINOMEscan binding assay; conditions: 1000 nM, percent control relative to vehicle
T4 construct: purchased DiscoveRx KINOMEscan
Excerpt: as §2

[10] = biological target: T5, TRKA (Homo sapiens, UniProt P04629); test: KINOMEscan binding assay; conditions: 1000 nM, percent control relative to vehicle
T5 construct: purchased DiscoveRx KINOMEscan
Excerpt: as §2

[11] = biological target: T6, ACVR1B (Homo sapiens, UniProt P36896); test: KINOMEscan binding assay; conditions: 1000 nM, percent control relative to vehicle
T6 construct: purchased DiscoveRx KINOMEscan
Excerpt: as §2

[12] = biological target: T7, KIT(D816V) (Homo sapiens, UniProt P10721, D816V); test: KINOMEscan binding assay; conditions: 1000 nM, percent control relative to vehicle
T7 construct: purchased DiscoveRx KINOMEscan
Excerpt: as §2

[13] = biological target: T8, PDGFRB (Homo sapiens, UniProt P09619); test: KINOMEscan binding assay; conditions: 1000 nM, percent control relative to vehicle
T8 construct: purchased DiscoveRx KINOMEscan
Excerpt: as §2

[14] = biological target: T9, JNK2 (Homo sapiens, UniProt P45984); test: KINOMEscan binding assay; conditions: 1000 nM, percent control relative to vehicle
T9 construct: purchased DiscoveRx KINOMEscan
Excerpt: as §2

[15] = biological target: T10, KIT (V559D, T670I) (Homo sapiens, UniProt P10721, T670I/V559D); test: KINOMEscan binding assay; conditions: 1000 nM, percent control relative to vehicle
T10 construct: purchased DiscoveRx KINOMEscan
Excerpt: as §2

[16] = biological target: T11, CDK11 (Homo sapiens, UniProt Q9BWU1); test: KINOMEscan binding assay; conditions: 1000 nM, percent control relative to vehicle
T11 construct: purchased DiscoveRx KINOMEscan
Excerpt: as §2

[17] = biological target: T12, SRPK3 (Homo sapiens, UniProt Q9UPE1); test: KINOMEscan binding assay; conditions: 1000 nM, percent control relative to vehicle
T12 construct: purchased DiscoveRx KINOMEscan
Excerpt: as §2

[18] = biological target: T13, TIE2 (Homo sapiens, UniProt Q02763); test: KINOMEscan binding assay; conditions: 1000 nM, percent control relative to vehicle
T13 construct: purchased DiscoveRx KINOMEscan
Excerpt: as §2

[19] = biological target: T14, CDK3 (Homo sapiens, UniProt Q00526); test: KINOMEscan binding assay; conditions: 1000 nM, percent control relative to vehicle
T14 construct: purchased DiscoveRx KINOMEscan
Excerpt: as §2

T7 sequence (P10721 26-976 D816V): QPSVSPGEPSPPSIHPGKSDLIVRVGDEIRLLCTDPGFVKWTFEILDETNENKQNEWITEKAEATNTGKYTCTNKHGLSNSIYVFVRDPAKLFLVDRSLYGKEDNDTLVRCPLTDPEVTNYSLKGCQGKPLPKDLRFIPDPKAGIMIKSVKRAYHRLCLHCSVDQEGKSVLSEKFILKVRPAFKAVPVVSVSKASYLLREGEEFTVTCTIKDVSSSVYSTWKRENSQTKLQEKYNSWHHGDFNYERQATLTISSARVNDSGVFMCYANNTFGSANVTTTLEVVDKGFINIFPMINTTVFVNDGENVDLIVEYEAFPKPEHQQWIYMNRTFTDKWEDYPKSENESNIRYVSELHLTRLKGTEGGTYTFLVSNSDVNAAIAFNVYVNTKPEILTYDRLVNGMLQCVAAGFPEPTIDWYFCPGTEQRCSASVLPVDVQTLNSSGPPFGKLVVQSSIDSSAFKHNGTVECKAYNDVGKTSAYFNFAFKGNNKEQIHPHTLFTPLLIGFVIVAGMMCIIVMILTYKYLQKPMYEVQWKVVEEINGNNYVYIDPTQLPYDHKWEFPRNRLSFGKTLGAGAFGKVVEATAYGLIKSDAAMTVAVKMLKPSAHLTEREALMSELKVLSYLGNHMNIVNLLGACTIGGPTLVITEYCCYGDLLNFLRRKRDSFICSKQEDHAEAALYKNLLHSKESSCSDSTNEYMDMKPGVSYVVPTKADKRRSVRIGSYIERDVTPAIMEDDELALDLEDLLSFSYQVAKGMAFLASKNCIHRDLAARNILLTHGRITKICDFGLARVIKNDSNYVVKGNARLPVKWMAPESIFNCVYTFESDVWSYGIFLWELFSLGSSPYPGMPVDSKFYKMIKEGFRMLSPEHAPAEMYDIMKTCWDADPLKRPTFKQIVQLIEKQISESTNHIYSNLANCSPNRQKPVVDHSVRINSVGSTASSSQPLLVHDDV
T9 sequence (P45984 whole entry): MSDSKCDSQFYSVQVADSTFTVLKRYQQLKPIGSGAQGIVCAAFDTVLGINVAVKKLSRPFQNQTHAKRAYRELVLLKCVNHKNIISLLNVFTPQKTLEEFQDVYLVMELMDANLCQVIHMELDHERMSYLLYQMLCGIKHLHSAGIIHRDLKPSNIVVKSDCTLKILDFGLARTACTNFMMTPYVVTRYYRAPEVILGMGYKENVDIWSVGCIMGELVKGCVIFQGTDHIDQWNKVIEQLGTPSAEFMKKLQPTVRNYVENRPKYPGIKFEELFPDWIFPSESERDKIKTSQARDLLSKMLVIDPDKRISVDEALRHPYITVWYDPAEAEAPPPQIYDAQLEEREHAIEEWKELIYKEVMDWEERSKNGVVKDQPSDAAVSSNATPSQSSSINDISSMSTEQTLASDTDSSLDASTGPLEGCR
T10 sequence (P10721 26-976 V559D/T670I): as the sequence (P10721 26-976 D816V) above, with V534D, T645I, V791D counted along it
T8 sequence (P09619 33-1106): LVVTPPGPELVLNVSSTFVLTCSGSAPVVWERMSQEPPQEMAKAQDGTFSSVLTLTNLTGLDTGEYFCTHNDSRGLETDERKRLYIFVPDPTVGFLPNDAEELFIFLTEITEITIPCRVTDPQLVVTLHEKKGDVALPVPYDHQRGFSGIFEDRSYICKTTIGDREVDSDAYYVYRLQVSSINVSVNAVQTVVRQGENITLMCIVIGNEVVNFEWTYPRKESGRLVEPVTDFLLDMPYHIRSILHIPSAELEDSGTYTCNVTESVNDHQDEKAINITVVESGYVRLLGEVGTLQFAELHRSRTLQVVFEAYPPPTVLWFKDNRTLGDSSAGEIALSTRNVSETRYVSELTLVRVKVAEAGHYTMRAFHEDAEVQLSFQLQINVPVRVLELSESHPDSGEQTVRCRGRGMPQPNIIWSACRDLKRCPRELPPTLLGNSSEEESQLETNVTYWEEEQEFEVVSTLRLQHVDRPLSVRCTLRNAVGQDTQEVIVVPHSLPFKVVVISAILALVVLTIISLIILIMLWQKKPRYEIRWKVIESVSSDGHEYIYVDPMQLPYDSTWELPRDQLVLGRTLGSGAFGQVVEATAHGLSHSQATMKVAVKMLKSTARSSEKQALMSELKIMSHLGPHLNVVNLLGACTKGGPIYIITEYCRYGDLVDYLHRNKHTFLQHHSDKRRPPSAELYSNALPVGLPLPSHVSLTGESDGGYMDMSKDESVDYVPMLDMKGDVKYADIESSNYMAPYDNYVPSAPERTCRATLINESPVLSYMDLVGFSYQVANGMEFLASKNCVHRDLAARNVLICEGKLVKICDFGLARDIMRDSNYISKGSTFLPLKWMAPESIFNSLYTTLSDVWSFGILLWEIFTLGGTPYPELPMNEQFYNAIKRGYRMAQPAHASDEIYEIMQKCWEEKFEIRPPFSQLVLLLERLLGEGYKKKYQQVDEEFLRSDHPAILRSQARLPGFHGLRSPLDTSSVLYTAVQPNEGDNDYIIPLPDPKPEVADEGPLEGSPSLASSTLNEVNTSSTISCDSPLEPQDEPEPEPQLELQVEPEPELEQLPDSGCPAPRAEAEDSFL
T13 sequence (Q02763 23-1124): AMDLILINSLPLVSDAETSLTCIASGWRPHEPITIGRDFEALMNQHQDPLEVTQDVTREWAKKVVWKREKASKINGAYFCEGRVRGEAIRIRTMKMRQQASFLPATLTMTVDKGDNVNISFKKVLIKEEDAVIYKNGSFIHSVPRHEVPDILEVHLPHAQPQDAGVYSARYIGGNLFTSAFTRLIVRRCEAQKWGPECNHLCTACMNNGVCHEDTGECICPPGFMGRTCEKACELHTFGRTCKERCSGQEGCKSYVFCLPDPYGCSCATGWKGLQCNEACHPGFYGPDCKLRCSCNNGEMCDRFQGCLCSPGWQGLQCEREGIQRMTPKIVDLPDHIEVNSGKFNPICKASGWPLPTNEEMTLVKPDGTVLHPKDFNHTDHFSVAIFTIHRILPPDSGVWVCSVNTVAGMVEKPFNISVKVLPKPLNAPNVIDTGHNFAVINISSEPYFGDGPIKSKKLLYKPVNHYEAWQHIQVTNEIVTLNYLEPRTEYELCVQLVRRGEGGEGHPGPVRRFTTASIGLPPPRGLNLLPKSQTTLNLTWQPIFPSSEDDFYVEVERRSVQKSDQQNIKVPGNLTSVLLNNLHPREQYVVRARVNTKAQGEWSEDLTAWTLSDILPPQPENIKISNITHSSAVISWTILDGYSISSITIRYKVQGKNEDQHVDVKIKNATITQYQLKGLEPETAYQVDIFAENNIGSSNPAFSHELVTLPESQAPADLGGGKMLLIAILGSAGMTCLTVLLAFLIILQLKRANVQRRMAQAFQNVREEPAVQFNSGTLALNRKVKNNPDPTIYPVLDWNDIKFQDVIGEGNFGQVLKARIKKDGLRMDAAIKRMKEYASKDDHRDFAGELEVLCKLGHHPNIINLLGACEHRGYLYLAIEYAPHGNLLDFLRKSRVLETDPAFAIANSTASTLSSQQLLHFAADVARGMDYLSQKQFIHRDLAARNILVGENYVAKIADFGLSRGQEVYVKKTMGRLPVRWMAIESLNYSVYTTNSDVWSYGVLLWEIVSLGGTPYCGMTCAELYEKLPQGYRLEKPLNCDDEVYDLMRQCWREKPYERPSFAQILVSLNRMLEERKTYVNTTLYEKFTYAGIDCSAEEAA
T1 sequence (P07949 29-1114): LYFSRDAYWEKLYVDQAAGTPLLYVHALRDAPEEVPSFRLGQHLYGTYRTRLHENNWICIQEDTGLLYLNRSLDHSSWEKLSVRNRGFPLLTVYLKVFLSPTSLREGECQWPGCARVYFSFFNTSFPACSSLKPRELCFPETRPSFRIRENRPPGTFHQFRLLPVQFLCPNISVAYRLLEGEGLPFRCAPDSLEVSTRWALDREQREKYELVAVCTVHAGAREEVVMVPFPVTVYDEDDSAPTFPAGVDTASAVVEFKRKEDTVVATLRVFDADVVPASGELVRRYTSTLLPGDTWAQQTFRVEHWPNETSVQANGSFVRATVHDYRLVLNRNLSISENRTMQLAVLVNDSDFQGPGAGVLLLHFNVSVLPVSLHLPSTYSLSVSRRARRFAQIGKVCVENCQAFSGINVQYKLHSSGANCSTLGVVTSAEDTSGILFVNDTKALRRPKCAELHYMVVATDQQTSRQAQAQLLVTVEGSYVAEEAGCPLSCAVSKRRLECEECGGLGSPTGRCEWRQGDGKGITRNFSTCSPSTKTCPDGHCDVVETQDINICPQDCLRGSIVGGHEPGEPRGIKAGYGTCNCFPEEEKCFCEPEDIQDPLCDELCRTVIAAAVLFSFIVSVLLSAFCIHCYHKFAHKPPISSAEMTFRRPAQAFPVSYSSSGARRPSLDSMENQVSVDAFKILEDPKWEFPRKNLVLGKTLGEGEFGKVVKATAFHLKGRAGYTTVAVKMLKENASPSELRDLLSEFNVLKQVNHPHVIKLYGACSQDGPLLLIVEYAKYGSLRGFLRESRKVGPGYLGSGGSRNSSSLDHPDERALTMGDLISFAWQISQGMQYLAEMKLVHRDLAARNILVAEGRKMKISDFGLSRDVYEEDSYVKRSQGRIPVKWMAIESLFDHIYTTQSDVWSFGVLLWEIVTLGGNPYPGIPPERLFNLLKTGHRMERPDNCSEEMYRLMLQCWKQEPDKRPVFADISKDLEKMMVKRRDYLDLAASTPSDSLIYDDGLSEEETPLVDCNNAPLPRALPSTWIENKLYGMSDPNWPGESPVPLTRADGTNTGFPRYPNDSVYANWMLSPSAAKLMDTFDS
T2 sequence (O14965 whole entry): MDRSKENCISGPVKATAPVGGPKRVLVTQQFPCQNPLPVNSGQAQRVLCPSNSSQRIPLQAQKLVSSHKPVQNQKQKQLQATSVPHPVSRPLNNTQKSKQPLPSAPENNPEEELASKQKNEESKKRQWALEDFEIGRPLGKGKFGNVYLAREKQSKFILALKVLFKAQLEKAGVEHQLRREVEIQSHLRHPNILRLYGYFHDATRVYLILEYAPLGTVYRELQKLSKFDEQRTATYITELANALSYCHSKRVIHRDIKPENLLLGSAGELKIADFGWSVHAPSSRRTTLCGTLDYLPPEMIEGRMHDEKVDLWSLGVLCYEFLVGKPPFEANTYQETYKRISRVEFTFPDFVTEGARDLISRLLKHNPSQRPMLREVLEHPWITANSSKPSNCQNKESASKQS

Question: With CNC(=O)c1cccc(-c2ccc3c(N4C5CCC4COC5)nc(N4CCOC[C@@H]4C)nc3n2)c1 [MTI-31] as the compound, how does the IC50 ([1]; read-out: concentration achieving 50% inhibition of mTORC1 and mTORC2 substrates, 786-O, U87MG and MDA-MB-453 cells, 6 h treatment) read?
Answer: The IC50 was no more than 0.12 µM.

Question: What about the EC50 ([1]; several relevant tumor models (cells), read-out: EC50, inhibition of mTORC1/mTORC2 signaling) of the same compound?
Answer: Its EC50 is no more than 0.12 µM.

Question: And the “tumor growth inhibition (TGI) at MED” value ([2]; 5 mg/kg oral qd, p<0.01)?
Answer: The value was greater than 50%.

Question: And the “body weight loss at MTD” value ([2]; 40 mg/kg oral qd, without mortality)?
Answer: Its value is 7-15%.

Question: What about the “tumor response, large size tumors” value ([2]; nude mice bearing large size MDA-MB-453 tumors, 40 mg/kg qd) of the same compound?
Answer: The value was “rapid and dramatic tumor regression”.

Question: What about the “minimum efficacious dose (MED)” value ([2]; oral, qd, nude mice, MDA-MB-453 and 786-O models) of the same compound?
Answer: Its value is 5 mg/kg.

Question: And the “maximum tolerated dose (MTD)” value ([2]; oral, qd, nude mice, without mortality)?
Answer: Its value is 40 mg/kg.

Question: What about the antitumor efficacy [3] of the same compound?
Answer: Its antitumor efficacy is “limited efficacy”.

Question: And the “P-S6 and P-AKT levels in tumor tissue” value ([4]; 5 mg/kg oral qd)?
Answer: The value was “significantly reduced”.

Question: What about the “P-S6 and P-AKT levels in tumor tissue” value ([4]; 10 mg/kg oral qd) of the same compound?
Answer: The value was “nearly complete suppression”.

Question: And the “reduction in acetyl-CoA” value [5]?
Answer: The value was 67%.

Question: And the “% Control” value [6]?
Answer: The value was 100%.

Question: And the “% Control” value [7]?
Answer: The value was 97%.

Question: What about the “% Control” value [8] of the same compound?
Answer: The value was 97%.

Question: And the “% Control” value [9]?
Answer: Its value is 89%.

Question: What about the “% Control” value [10] of the same compound?
Answer: The value was 84%.

Question: What about the “% Control” value [11] of the same compound?
Answer: The value was 86%.

Question: And the “% Control” value [12]?
Answer: Its value is 97%.

Question: And the “% Control” value [13]?
Answer: The value was 100%.

Question: And the “% Control” value [14]?
Answer: The value was 96%.

Question: What about the “% Control” value [15] of the same compound?
Answer: The value was 100%.

Question: What about the “% Control” value [16] of the same compound?
Answer: Its value is 100%.

Question: What about the “% Control” value [17] of the same compound?
Answer: The value was 90%.

Question: And the “% Control” value [18]?
Answer: The value was 100%.

Question: What about the “% Control” value [19] of the same compound?
Answer: The value was 99%.
